Where a SMILES comes first, the peptide text is derived from it.
Key:
[1] = test system: B16F10 mouse melanoma cells; assay: Tumor metastasis experiment model (B16F10); assay type: in vivo, C57BL/6J mouse; details: B16F10, 1 mg/kg per day peritoneally, three weeks, versus untreated control mouse
Procedure: 1×10^5 B16F10 mouse melanoma cells were injected into the caudal vein in the C57BL/6J mouse, and 1 mg/kg (100 μl) of RLYE (SEQ ID NO: 2) was peritoneally injected daily for 3 weeks. The lung was extracted and washed with Dulbecco's PBS, fixed in a 4% paraformaldehyde solution overnight, and the number of tumor metastasis shown on the entire surface of the lung was counted under a stereoscopic microscope.

[2] = test system: HUVECs; assay: VEGF-induced HUVEC proliferation, [3H]-thymidine incorporation assay; assay type: cell-based, human
Procedure: Human umbilical vein endothelial cells (HUVECs) were cultured in M199 medium, and during experiments, the cells were always used at passages 2 to 7. Meanwhile, mouse melanoma cells (B16F1 and B16F10) and human colorectal tumor cells (HCT116) were cultured in RPMI media supplemented with 10% FBS, 1 mM sodium pyruvate, 10 mM 4-(2-hydroxyethyl)-1-piperazineethanesulfonic acid and 100 U/ml penicillin-streptomycin, and human multiple myeloma cells (IM-9 and RPMI 8226) were cultured in RPMI-1640 media. All of the cells were cultured at 37° C. with 5% CO2 in a humidified incubator.
Angiogenic activity was determined by measuring cell proliferation, migration and tube formation. HUVEC proliferation was analyzed by a [3H]-thymidine incorporation assay. The HUVECs were seeded in a 24-well plate coated with gelatin at a density of 2×10^4 cells/well. […] […] […] 3H-labeled polymer DNA was evaluated with a liquid scintillation counter.

[3] = biological target: T1, VEGFR-2 (Homo sapiens, UniProt P35968); assay: Surface plasmon resonance (SPR) assay; assay type: binding; details: rhVEGFR-2 fixed on CM5 chip
Procedure: Binding dynamics and affinity of RLYE (SEQ ID NO: 2) to rhVEGFR-2 were evaluated with BIAcore AB (Sweden). A carboxymethylated dextran biosensor chip (CM5, BIAcore AB) was activated with 1-ethyl-3-(3-dimethylaminopropyl)carbodiimide and N-hydroxysuccinimide according to the manufacturer's manual. The rhVEGFR-2 (1 ng/μl, 10 mM Hepes, 150 mM NaCl, 3 mM EDTA, 0.005% Tween-20-containing HBS-EP buffer) was injected over the activated CM5 chip for fixation. Various concentrations of an RLYE (SEQ ID NO: 2) solution was injected over the rhVEGFR-2-fixed center chip with a flow rate of 25 μl/min, and binding and non-binding characteristics between RLYE (SEQ ID NO: 2) and the rhVEGFR-2 were analyzed. The peptide bonds were measured in arbitrary response units, and after the injection of each sample (120 sec), the HBS-EP buffer was passed over a sensor surface to monitor dissociation. The equilibrium dissociation constant (Kd) was derived to a fixing step-combined model.

[4] = test system: VEGF-A-induced angiogenesis; assay: Matrigel implantation, intravital fluorescence microscopy; assay type: in vivo, C57BL/6J mouse; details: mouse, RLYE 1.5 nM, VEGF 100 ng
Procedure: Formation of new blood vessels was examined by intravital fluorescence microscopy. A C57BL/6J mouse was anesthetized, and then a titanium-made imaging window was installed between the skin and an abdominal wall by surgery. 100 μl of Matrigel containing RLYE (SEQ ID NO: 2) (1.5 nM) alone or in combination with VEGF (100 ng) was injected into an inner space between the skin and abdominal walls of the window. Four days later, 50 μl of dextran (MW 250 kDa) labeled with 25 mg/ml of FITC was injected into the caudal vein, and then formation of new blood vessels was observed under a Zeiss Axiovert 200M microscope (Carl Zeiss). A vascular length density of the FITC-labeled dextran-perfuse blood vessels per observation area (mm/mm2) was calculated.

[5] = test system: Src; assay: Western blot, Src phosphorylation in VEGF-A-stimulated HUVECs; assay type: cell-based, human; details: HUVECs stimulated with VEGF-A
Procedure: (§1) Cells were lyzed in RIPA buffer, and 50 μg of proteins were isolated by SDS-PAGE and then transferred to a PVDF membrane. The membrane was reacted with an antibody with respect to a target protein for 2 hours. The membrane was washed twice and reacted with a horseradish peroxidase-conjugated antibody, and then an amount of the target proteins was assessed with an enhanced chemiluminescence system.

[6] = biological target: T2, VEGFR-1 (Homo sapiens, UniProt P17948); assay: VEGFR pull-down assay using biotin-labeled RLYE, VEGFR-1; assay type: binding; details: HUVEC lysate
T2 construct: endogenous in cells; host or cells: HUVEC lysate
Procedure: (§2) HUVECs were lysed in a pull-down buffer [50 mM Tris-HCl (pH 8.0), 150 mM sodium chloride, 1.0% NP-40, 0.5% sodium deoxycholate and 0.1% SDS]. A lysate ([…] of proteins) was reacted with biotin-labeled RLYE (SEQ ID NO: 2) (0.15 or 1.5 nM) for 1 hour, and reacted with streptavidin-agarose beads ([…]) at 4° C. for 1 hour. RLYE (SEQ ID NO: 2)-binding proteins were isolated from the cell lysate through centrifugation, washed, and then boiled for 10 minutes. The bead-binding proteins were isolated by SDS-PAGE, and immunoblotting was performed with an antibody with respect to VEGFR-2 or VEGFR-1.

[7] = biological target: T1, VEGFR-2; assay: VEGFR pull-down assay using biotin-labeled RLYE, VEGFR-2; assay type: binding; set-up: endogenous in cells; host or cells: HUVEC; details: HUVEC lysate
Procedure: as §2

[8] = test system: aortic ring; assay: Aortic ring sprouting assay (ex vivo); set-up: species or system Sprague-Dawley rat; details: RLYE 0.3 nM, VEGF 20 ng/ml
Procedure: An aortic ring sprouting assay was performed by a method modified based on previous research. A 1-mm-thick aortic ring prepared from a Sprague-Dawley rat (7-week-old male) was placed in a 96-well plate coated with 120 μl of Matrigel, sealed with 50 μl of Matrigel, and incubated with RLYE (SEQ ID NO: 2) (0.3 nM) or VEGF (20 ng/ml) in a total of 200 μl of a serum-free medium. Blood vessels newly formed at day 6 were fixed, microvascular formation was observed under a phase-contrast microscope, and angiogenesis was quantified with Image Jsoftware available at NIH website, rsb.info.nih.gov/ij.

[9] = biological target: T1, VEGFR-2; assay: Western blot, VEGFR-2 phosphorylation in VEGF-A-treated HUVECs; assay type: cell-based; set-up: endogenous in cells; host or cells: HUVEC
Procedure: as §1

[10] = test system: NO synthase (eNOS); assay: Western blot, eNOS phosphorylation in VEGF-A-stimulated HUVECs; assay type: cell-based, human
Procedure: as §1

T1 sequence (P35968 20-1356): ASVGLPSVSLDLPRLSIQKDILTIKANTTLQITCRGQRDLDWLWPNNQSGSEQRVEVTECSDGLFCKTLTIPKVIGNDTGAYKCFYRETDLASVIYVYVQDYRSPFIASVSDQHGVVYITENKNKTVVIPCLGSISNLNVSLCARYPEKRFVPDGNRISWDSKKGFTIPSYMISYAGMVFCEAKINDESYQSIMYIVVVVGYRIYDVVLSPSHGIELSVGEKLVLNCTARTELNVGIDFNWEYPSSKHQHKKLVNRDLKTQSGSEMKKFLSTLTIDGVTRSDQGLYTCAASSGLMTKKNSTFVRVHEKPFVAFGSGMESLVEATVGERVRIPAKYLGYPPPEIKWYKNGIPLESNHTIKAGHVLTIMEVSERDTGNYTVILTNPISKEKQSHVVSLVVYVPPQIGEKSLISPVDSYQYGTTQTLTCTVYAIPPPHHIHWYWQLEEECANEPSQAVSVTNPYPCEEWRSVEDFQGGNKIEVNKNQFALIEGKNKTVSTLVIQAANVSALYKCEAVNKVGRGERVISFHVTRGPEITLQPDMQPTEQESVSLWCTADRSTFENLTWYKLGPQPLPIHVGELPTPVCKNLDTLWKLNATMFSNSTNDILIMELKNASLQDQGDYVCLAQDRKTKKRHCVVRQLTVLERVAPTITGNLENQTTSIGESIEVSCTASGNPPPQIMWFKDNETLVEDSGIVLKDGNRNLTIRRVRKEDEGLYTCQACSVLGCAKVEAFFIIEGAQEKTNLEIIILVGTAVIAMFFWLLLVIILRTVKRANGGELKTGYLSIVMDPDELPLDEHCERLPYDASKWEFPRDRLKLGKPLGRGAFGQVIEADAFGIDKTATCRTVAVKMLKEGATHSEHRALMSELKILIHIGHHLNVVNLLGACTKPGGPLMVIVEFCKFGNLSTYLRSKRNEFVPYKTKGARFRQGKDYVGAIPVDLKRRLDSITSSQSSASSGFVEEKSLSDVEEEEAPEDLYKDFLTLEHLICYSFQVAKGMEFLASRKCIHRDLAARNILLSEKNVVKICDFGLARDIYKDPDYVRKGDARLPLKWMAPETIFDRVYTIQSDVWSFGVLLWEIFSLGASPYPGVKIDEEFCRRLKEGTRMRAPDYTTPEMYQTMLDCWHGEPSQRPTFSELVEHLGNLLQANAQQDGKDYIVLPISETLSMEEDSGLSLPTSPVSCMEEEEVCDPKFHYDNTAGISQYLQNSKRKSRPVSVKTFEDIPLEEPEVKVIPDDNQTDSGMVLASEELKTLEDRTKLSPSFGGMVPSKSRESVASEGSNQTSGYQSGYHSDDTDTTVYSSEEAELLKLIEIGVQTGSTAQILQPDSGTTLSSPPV
T2 sequence (P17948 27-1338): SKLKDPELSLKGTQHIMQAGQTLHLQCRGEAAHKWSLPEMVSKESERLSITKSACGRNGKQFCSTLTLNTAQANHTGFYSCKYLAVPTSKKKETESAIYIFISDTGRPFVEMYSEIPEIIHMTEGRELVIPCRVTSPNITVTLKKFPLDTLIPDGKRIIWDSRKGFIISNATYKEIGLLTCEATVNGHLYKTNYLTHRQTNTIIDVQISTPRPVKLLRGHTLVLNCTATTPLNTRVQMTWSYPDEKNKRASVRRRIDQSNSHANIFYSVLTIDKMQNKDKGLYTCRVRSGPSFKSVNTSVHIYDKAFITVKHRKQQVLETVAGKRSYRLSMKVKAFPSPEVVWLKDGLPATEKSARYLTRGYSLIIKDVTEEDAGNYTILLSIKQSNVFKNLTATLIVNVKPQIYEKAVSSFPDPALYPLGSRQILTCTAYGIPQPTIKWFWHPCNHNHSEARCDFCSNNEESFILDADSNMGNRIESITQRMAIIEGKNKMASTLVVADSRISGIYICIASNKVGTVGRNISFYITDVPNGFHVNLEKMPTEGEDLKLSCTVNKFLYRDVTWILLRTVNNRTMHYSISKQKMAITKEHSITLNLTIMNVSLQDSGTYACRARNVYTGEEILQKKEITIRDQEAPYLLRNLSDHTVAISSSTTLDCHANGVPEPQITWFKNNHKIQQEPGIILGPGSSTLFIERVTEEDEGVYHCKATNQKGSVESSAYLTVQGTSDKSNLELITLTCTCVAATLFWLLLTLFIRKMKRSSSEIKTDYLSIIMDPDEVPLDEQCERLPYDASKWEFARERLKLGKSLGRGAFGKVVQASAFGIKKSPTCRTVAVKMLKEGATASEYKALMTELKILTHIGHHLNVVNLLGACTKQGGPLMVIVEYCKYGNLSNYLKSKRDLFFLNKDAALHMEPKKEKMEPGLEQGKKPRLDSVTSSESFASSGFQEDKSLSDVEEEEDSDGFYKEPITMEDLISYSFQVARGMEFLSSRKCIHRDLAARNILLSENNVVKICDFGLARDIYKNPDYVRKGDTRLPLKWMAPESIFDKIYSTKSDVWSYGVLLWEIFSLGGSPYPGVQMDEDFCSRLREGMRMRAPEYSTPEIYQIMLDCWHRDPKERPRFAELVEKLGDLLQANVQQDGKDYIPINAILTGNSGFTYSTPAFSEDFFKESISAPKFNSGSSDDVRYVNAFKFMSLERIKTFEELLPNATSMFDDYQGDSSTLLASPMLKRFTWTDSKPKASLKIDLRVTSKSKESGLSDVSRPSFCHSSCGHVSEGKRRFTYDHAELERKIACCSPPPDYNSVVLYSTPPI

CC(C)C[C@H](NC(=O)[C@@H](N)CCCNC(=N)N)C(=O)N[C@@H](Cc1ccc(O)cc1)C(=O)N[C@@H](CCC(=O)O)C(=O)O [RLYE] (H-RLYE-OH; N-terminus and C-terminus assumed)
decrease in number of colonies of tumor cells spreading to the lung [1]: 62% | inhibition of VEGF-induced HUVEC proliferation ([2]; VEGF 10 ng/ml, [3H]-thymidine incorporation): effectively inhibited | IC50 lower than that of the control KLYD (HUVEC proliferation) ([2]; versus KLYD): 10 fold | binding to rhVEGFR-2 (SPR) [3]: effectively binds | VEGF-A-induced angiogenesis in Matrigel implant [4]: effectively inhibited | phosphorylation of Src [5]: inhibited | binding to VEGFR-1 (pull-down) [6]: does not bind to VEGFR-1 | binding to VEGFR-2 (pull-down) [7]: binds to VEGFR-2 | VEGF-A-induced angiogenesis at the edge of the aortic ring [8]: significantly inhibited | phosphorylation of VEGFR-2 [9]: inhibits | VEGF-A-induced phosphorylation of eNOS [10]: effectively blocked

Source: patent US9969771B2, “Tetrapeptide having effect of inhibiting VEGF-induced angiogenesis and use thereof” (AVIXGEN INC., priority 2015, dated 2018)
